Results reported in ChEMBL document CHEMBL1146354, “Synthesis, cytotoxicity, and DNA topoisomerase II inhibitory activity of benzofuroquinolinediones” (Bioorg Med Chem, 2007).

Experiments:
[1] = test system: HL-60; assay: Cytotoxicity against human HL60 cells by SRB assay; format: functional, cell-based
[2] = test system: XF498; assay: Cytotoxicity against human XF498 cells by SRB assay; format: functional, cell-based
[3] = target: T1, DNA topoisomerase 1 (Homo sapiens) (UniProt P11387); assay: Inhibition of human topoisomerase 1-mediated DNA relaxation activity at 5 uM after 10 mins relative to control
T1 sequence (whole entry): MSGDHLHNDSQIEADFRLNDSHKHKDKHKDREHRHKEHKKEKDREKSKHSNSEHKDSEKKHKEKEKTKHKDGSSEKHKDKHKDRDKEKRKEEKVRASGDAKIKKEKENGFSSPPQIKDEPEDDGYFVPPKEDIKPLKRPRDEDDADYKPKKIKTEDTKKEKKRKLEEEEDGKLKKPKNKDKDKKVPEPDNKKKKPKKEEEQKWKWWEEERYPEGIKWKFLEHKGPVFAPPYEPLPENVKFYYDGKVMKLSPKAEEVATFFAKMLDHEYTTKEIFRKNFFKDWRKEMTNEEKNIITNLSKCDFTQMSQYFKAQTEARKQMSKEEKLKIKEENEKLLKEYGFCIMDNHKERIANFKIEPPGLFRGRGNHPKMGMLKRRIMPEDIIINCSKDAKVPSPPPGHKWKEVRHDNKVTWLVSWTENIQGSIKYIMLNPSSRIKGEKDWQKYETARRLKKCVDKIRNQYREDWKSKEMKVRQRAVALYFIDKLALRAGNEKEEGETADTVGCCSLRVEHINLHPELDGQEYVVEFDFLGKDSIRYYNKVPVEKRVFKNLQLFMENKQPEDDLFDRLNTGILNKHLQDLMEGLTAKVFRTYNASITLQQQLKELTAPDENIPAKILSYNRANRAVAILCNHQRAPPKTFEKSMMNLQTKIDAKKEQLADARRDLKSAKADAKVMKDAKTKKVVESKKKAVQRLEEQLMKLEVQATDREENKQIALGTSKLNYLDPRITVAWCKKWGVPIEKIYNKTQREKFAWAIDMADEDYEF

[4] = test system: A549; assay: Cytotoxicity against human A549 cells by SRB assay; format: functional, cell-based
[5] = test system: SK-MEL-2; assay: Cytotoxicity against human SK-MEL-2 cells by SRB assay; format: functional, cell-based
[6] = test system: HCT-116; assay: Cytotoxicity against human HCT116 cells by SRB assay; format: functional, cell-based
[7] = test system: SNU-638; assay: Cytotoxicity against human SNU638 cells by SRB assay; format: functional, cell-based
[8] = species: Homo sapiens; assay: Inhibition of human topoisomerase 2-mediated KDNA decatenation activity at 5 uM after 10 mins relative to control
[9] = test system: SK-OV-3; assay: Cytotoxicity against human SK-OV-3 cells by SRB assay; format: functional, cell-based
[10] = test system: HT-1080; assay: Cytotoxicity against human HT1080 cells by SRB assay; format: functional, cell-based
[11] = species: Homo sapiens; assay: Inhibition of human topoisomerase 2-mediated KDNA decatenation activity at 200 uM after 10 mins relative to control
[12] = Inhibition of human topoisomerase 2 […]
[13] = target: T2, DNA topoisomerase 1 (Homo sapiens, UniProt P11387); assay: Inhibition of human topoisomerase 1 […]
T2 sequence (P11387 whole entry): T1 sequence (whole entry)

Row | Compound | IC50 [1] | IC50 [2] | inhibition [3] | IC50 [4] | IC50 [5] | IC50 [6] | IC50 [7] | inhibition [8] | IC50 [9] | IC50 [10] | inhibition [11] | IC50 [12] | IC50 [13]
1 | CC(C)N(CCOc1cc2oc3c(c2cc1Cl)C(=O)c1ccccc1C3=O)C(C)C | > 20000 nM | > 20000 nM | 14% | > 20000 nM | > 20000 nM | > 20000 nM | > 20000 nM | 59% | > 20000 nM | > 20000 nM | – | – | –
2 | COc1cc([C@@H]2c3cc4c(cc3[C@@H](O[C@@H]3O[C@@H]5CO[C@@H](C)O[C@H]5[C@H](O)[C@H]3O)[C@H]3COC(=O)[C@H]23)OCO4)cc(OC)c1O [ETOPOSIDE] | 370 nM | – | – | – | – | 1870 nM | – | – | – | – | 89% | 78400 nM | –
3 | CCN(CC)CCOc1cc2oc3c(c2cc1Cl)C(=O)c1ccccc1C3=O | 2270 nM | > 20000 nM | 19% | 1590 nM | 5730 nM | 1520 nM | 2770 nM | 50% | > 20000 nM | 2730 nM | – | – | –
4 | CC(C)N(CCOc1ccc2c3c(oc2c1)C(=O)c1ncccc1C3=O)C(C)C | 80 nM | 940 nM | 0% | 370 nM | 940 nM | 180 nM | 450 nM | 71% | 1020 nM | 180 nM | – | – | –
5 | CCN(CC)CCOc1ccc2c3c(oc2c1)C(=O)c1ncccc1C3=O | 250 nM | 140 nM | 0% | 50 nM | 160 nM | 60 nM | 140 nM | 100% | 270 nM | 70 nM | – | 680 nM | 64300 nM
6 | CC(CN(C)C)Oc1cc2oc3c(c2cc1Cl)C(=O)c1ccccc1C3=O (centres undefined) | 670 nM | 550 nM | 6% | 620 nM | 340 nM | 420 nM | 100 nM | 88% | 550 nM | 490 nM | – | – | –
7 | CC(COc1ccc2c3c(oc2c1)C(=O)c1ccccc1C3=O)N(C)C (centres undefined) | 390 nM | 4690 nM | 14% | 210 nM | 2150 nM | 2200 nM | 840 nM | 100% | 19000 nM | 340 nM | – | 1190 nM | 42000 nM
8 | CC(CN(C)C)Oc1ccc2c3c(oc2c1)C(=O)c1ncccc1C3=O (centres undefined) | 90 nM | 120 nM | 0% | 60 nM | 150 nM | 80 nM | 140 nM | 24% | 150 nM | 170 nM | – | – | –
9 | COc1cccc2c1C(=O)c1c(O)c3c(c(O)c1C2=O)C[C@@](O)(C(=O)CO)C[C@@H]3O[C@H]1C[C@H](N)[C@H](O)[C@H](C)O1 [DOXORUBICIN] | 40 nM | 40 nM | – | 150 nM | 70 nM | 620 nM | 60 nM | 78% | 290 nM | 60 nM | – | 2670 nM | –
10 | CC(COc1cc2oc3c(c2cc1Cl)C(=O)c1cccnc1C3=O)N(C)C (centres undefined) | 220 nM | 140 nM | 0% | 90 nM | 140 nM | 140 nM | 180 nM | 59% | 150 nM | 110 nM | – | – | –
11 | CC(CN(C)C)Oc1ccc2c3c(oc2c1)C(=O)c1ccccc1C3=O (centres undefined) | 250 nM | 1750 nM | 12% | 370 nM | 1520 nM | 270 nM | 880 nM | 84% | 2260 nM | 270 nM | – | – | 59500 nM
12 | CCN(CC)CCOc1cc2oc3c(c2cc1Cl)C(=O)c1cccnc1C3=O | 310 nM | 400 nM | 0% | 90 nM | 240 nM | 130 nM | 140 nM | 47% | 250 nM | 150 nM | – | – | –
13 | CC(COc1cc2oc3c(c2cc1Cl)C(=O)c1ccccc1C3=O)N(C)C (centres undefined) | 630 nM | 550 nM | 0% | 450 nM | 500 nM | 340 nM | 1140 nM | 68% | 650 nM | 650 nM | – | – | –
14 | CC(C)N(CCOc1ccc2c3c(oc2c1)C(=O)c1ccccc1C3=O)C(C)C | 1110 nM | 3170 nM | 10% | 2010 nM | 1530 nM | 1390 nM | 2570 nM | 36% | 3550 nM | 1020 nM | – | – | –
15 | CCN(CC)CCOc1ccc2c3c(oc2c1)C(=O)c1ccccc1C3=O | 650 nM | > 20000 nM | 12% | 1090 nM | > 20000 nM | 1680 nM | 3110 nM | 91% | > 20000 nM | 2190 nM | – | – | –
16 | CC(CN(C)C)Oc1cc2oc3c(c2cc1Cl)C(=O)c1cccnc1C3=O (centres undefined) | 60 nM | 170 nM | 0% | 100 nM | 150 nM | 130 nM | 100 nM | 11% | 150 nM | 100 nM | – | – | –
17 | CC(COc1ccc2c3c(oc2c1)C(=O)c1ncccc1C3=O)N(C)C (centres undefined) | 180 nM | 100 nM | 0% | 20 nM | 90 nM | 70 nM | 110 nM | 67% | 80 nM | 60 nM | – | – | –
18 | CC(C)N(CCOc1cc2oc3c(c2cc1Cl)C(=O)c1cccnc1C3=O)C(C)C | 700 nM | 910 nM | 0% | 180 nM | 730 nM | 410 nM | 530 nM | 35% | 750 nM | 220 nM | – | – | –
